The text below walks through data of patent publication US20070082871A1, “Antiresorptive mutual salt of raloxifene and bisphosphonic acid” (HANMI PHARM. CO., LTD., priority 2003, published 2007).

In experiment [1] the test system is ovary-removed rats. Particulars: for Bone volume Vol.: (bone volume)/(metaphysis volume) × 100; for Trabecular volume Vol.: (trabecular volume)/(epiphysis volume) × 100; for BMD / Stiffness Max. load / Stiffness Stiff.: femur; for BMD / Stiffness Max. load / Stiffness Stiff. / Blood calcium density Conc.: oophorectomy rats, oral once a day 8 weeks; for Stiffness Relativ. Stiff.: relative Max. Load value, OVX control = 1.00; for Trabecular volume Relativ Vol / BMD Relativ. Density / Blood calcium density Relativ. Conc. / Bone volume Relativ Vol: relative to OVX control = 1.00. As for the experimental part: (§1) In order to investigate the effects of the inventive mutual salts on BMD, bone stiffness, serum cholesterol level and calcium density, in vivo tests were carried out as follows.
(§2) Also, 1.5% carboxymethylcellulose alone was administrated in a same manner to each of ovary-removed rats (group OVX) and normal rats (control, group Sham). After 8 weeks, a femur sample was obtained from each test groups to measure BMD, maximum load, stiffness, trabecular volume of epiphysis, bone volume of metaphysis, blood cholesterol level and blood calcium density.

Experiment [2] relates to ovary-removed rats. Kind of experiment: In vivo test: blood cholesterol level. Also on record: species or system rats (Sprague-Dawley). Particulars: for Total blood cholesterol Conc.: oophorectomy rats, oral once a day 8 weeks; for Total blood cholesterol Relativ. Conc.: relative to OVX control = 1.00. As for the experimental part: as §1, §2
The mark [3] stands for this setting: in words, as compared with the individual raloxifene hydrochloride or alendronate.

Where two headings read alike, the source gives them in different places.

In the case of `NCCCC(O)(P(=O)(O)O)P(=O)(O)O` [Alendronate, sodium alendronate trihydrate], in experiment [1] (1.0 mg/kg (T1)), the “Bone volume Vol.” value is 56.46 ± 17.93%, the “Trabecular volume Vol.” value is given as 20.27 ± 7.76%, the BMD worked out at 92.57 ± 5.64 mg/cm^2 and the “Stiffness Max. load” value is listed as 19.22 ± 2.14 N. Moreover, in experiment [1] (1.0 mg/kg (T1)), the “Stiffness Stiff.” value was determined as 19.02 ± 3.86 N/mm, the “Stiffness Relativ. Stiff.” value is given as 0.88 and the “Trabecular volume Relativ Vol” value is 1.75. For the same molecule, in experiment [2] (1.0 mg/kg (T1)), the “Total blood cholesterol Conc.” value was determined as 98.387 ± 17.23 mg/dL and the “Total blood cholesterol Relativ. Conc.” value is reported as 0.93.

With `Cl.O=C(c1ccc(OCCN2CCCCC2)cc1)c1c(-c2ccc(O)cc2)sc2cc(O)ccc12` [Raloxifene hydrochloride, 6-hydroxy-2-(4-hydroxyphenyl)benzo[b]thien-3-yl 4-[2-(1-piperidinyl)ethoxy]phenyl methanone hydrochloride], in experiment [1] (1.9 mg/kg (T2)), the “Bone volume Vol.” value was found to be 75.96 ± 17.61%, the “Trabecular volume Vol.” value was 11.25 ± 2.57%, the BMD is on record as 91.09 ± 6.98 mg/cm^2 and the “Stiffness Max. load” value is on record as 30.00 ± 3.24 N. In experiment [1] (1.9 mg/kg (T2)), the “Stiffness Stiff.” value was 33.07 ± 9.55 N/mm, the “Blood calcium density Conc.” value stood at 9.20 ± 0.33 mg/dL, the “Stiffness Relativ. Stiff.” value amounted to 1.37 and the “BMD Relativ. Density” value is on record as 1.17. Moreover, in experiment [1] (1.9 mg/kg (T2)), the “Blood calcium density Relativ. Conc.” value came out at 0.98, the “Bone volume Relativ Vol” value is listed as 2.64 and the “Trabecular volume Relativ Vol” value is recorded as 0.97. Besides, in experiment [1] (5.6 mg/kg (T3)), the “Bone volume Vol.” value was 65.56 ± 15.33%, the “Trabecular volume Vol.” value turned out to be 15.15 ± 4.08%, the BMD was determined as 93.76 ± 6.22 mg/cm^2 and the “Stiffness Max. load” value was 32.09 ± 4.37 N. Also, in experiment [1] (5.6 mg/kg (T3)), the “Stiffness Stiff.” value came out at 38.64 ± 15.2 N/mm, the “Blood calcium density Conc.” value came out at 9.42 ± 0.23 mg/dL, the “Stiffness Relativ. Stiff.” value was 1.46 and the “BMD Relativ. Density” value worked out at 1.20. Moreover, in experiment [1] (5.6 mg/kg (T3)), the “Blood calcium density Relativ. Conc.” value worked out at 1.00, the “Bone volume Relativ Vol” value is given as 2.28 and the “Trabecular volume Relativ Vol” value is reported as 1.31. In experiment [2] (1.9 mg/kg (T2)), the “Total blood cholesterol Conc.” value is 41.40 ± 9.71 mg/dL and the “Total blood cholesterol Relativ. Conc.” value was 0.39. Besides, in experiment [2] (5.6 mg/kg (T3)), the “Total blood cholesterol Conc.” value was 40.83 ± 14.2 mg/dL and the “Total blood cholesterol Relativ. Conc.” value was 0.39.

Turning to raloxifene alendronate pentahydrate, in experiment [1] (2.9 mg/kg (T4)), the “Bone volume Vol.” value was 68.00 ± 9.00%, the “Trabecular volume Vol.” value is 17.81 ± 2.49%, the BMD was 99.28 ± 6.25 mg/cm^2 and the “Stiffness Max. load” value is listed as 26.50 ± 0.73 N. Further, in experiment [1] (2.9 mg/kg (T4)), the “Stiffness Stiff.” value came to 35.34 ± 11.3 N/mm, the “Blood calcium density Conc.” value is 6.69 ± 0.94 mg/dL, the “Stiffness Relativ. Stiff.” value is on record as 1.21 and the “BMD Relativ. Density” value is recorded as 1.27. Moreover, in experiment [1] (2.9 mg/kg (T4)), the “Blood calcium density Relativ. Conc.” value turned out to be 0.71, the “Bone volume Relativ Vol” value stood at 2.37 and the “Trabecular volume Relativ Vol” value is recorded as 1.54. Further, in experiment [1] (setting [3]), the “BMD, bone stiffness, trabecular volume and bone volume” value is given as “markedly enhances”; the blood calcium level entry was “effectively controls”. Further, the blood cholesterol level result in experiment [2] (setting [3]) is “effectively controls”. In experiment [2] (2.9 mg/kg (T4)), the “Total blood cholesterol Conc.” value was 66.86 ± 9.68 mg/dL and the “Total blood cholesterol Relativ. Conc.” value came out at 0.64.
